Measured values from US12084451B2, “Compositions and methods for reducing tactile dysfunction, anxiety, and social impairment” (President and Fellows of Harvard College, priority 2018, dated 2024).
Where “and” joins values, the source holds several entries; their conditions need not be identical. Identical values can stand only once. Like-named read-outs stand apart in the source and are kept apart here.

Columns and labels:
Format in all cases: cell-based
hGABAA α1β3γ2 [1] = molecular target: T1, hGABAA α1β3γ2 (Homo sapiens, UniProt P14867+P18507+P28472); test: hGABAA IonFlux HT PAM Assay, α1β3γ2; details: for Mean Maximal Effect (% of Control): normalized to baseline peak current induced by EC20 GABA (1 μM) for 2 seconds
Text: (§1) Ligand-gated ion channels targeted were hGABAA α1β3γ2 and hGABAA α2β3γ2.
(§2) Electrophysiological assays conducted to profile nine (9) compounds for activities on the on channel targets listed above for Positive Allosteric Modulator (PAM) activities using the IonFlux HT electrophysiological platform.
The parameters measured are described in the Data Analysis section.
(§3) All wells included a final DMSO concentration of 0.33% including all control wells.
(§4) All recordings were obtained from a holding potential of −60 mV. The compound addition sequence that was used for all additions was the same for all assays. […] The process was repeated with the next ascending concentration of test compound (FIG. 1).
(§5) All data were first exported to an Excel compatible data file and then analyzed using Graph Pad Prism software.

hGABAA α2β3γ2 = hGABAA α2β3γ2 (Homo sapiens, UniProt P18507+P28472+P47869); test: hGABAA IonFlux HT PAM Assay, α2β3γ2; details: for Mean Maximal Effect (% of Control): normalized to baseline peak current induced by EC20 GABA (0.8 μM) for 2 seconds; for EC50: read-out: Estimated EC50
Text: as §1, §2
The parameters measured are described in the Data Analysis section. […] Open circles represent data that has been excluded from the curve fitting. Where no curve fit was possible, n/c (not calculable) is listed.
as §3, §4, §5

hGABAA α1β3γ2 [2] = molecular target: T1, hGABAA α1β3γ2; test: hGABAA α1β3γ2 IonFlux HT Agonist Assay; parameters: activation of hGABAA α1β3γ2 ion channel currents / activation: dose or concentration left out as unconfirmed
Experimental: Ligand-gated ion channel targets were hGABAA α2β3γ2 and hGABAA α1β3γ2. Electrophysiological assays conducted to profile two compounds for agonist activities on hGABAA α2β3γ2 and seven compounds for agonist activities on hGABAA α1β3γ2 using the IonFlux HT electrophysiological platform.
The parameters measured are described in the Data Analysis section. […] Note: The test compounds was applied over two (2) ‘experimental patterns’ in increasing concentrations.
The supplied compound was prepared in DMSO to concentrations that were 300× the final assay concentrations. Aliquots were taken out and diluted 300× into external buffer to give the final assay concentration. At wells included a final DMSO concentration of 0.33% including all control wets.
All recordings were obtained from a holding potential of −60 mV. The compound addition sequence that was used for all additions was the same for all assays. […] Each test concentration of compound was applied for 2 seconds followed by 60 seconds wash. The process was repeated with the next ascending concentration of test compound. The test compounds were applied over two (2) ‘experimental patterns’ in increasing concentrations (FIG. 11).
AM data were first exported to an Excel compatible data file and then analyzed using Graph Pad Prism software.

[3] = read-out: Normalized Percentage Activation Mean
[4] = agonist activation of channel currents, read-out: Estimated EC50

Sequence of hGABAA α2β3γ2 (P47869 29-451): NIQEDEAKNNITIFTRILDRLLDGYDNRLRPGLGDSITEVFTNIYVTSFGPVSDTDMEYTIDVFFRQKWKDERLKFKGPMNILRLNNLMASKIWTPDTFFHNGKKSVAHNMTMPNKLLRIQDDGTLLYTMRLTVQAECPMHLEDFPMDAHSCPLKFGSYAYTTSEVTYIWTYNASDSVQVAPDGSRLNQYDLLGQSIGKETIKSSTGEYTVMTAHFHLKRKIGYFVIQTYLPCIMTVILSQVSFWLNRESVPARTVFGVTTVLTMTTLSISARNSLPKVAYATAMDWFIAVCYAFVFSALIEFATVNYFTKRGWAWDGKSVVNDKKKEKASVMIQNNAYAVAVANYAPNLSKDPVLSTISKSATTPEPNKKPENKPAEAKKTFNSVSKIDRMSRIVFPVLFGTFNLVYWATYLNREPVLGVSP
Sequence of hGABAA α2β3γ2 (P28472 26-473): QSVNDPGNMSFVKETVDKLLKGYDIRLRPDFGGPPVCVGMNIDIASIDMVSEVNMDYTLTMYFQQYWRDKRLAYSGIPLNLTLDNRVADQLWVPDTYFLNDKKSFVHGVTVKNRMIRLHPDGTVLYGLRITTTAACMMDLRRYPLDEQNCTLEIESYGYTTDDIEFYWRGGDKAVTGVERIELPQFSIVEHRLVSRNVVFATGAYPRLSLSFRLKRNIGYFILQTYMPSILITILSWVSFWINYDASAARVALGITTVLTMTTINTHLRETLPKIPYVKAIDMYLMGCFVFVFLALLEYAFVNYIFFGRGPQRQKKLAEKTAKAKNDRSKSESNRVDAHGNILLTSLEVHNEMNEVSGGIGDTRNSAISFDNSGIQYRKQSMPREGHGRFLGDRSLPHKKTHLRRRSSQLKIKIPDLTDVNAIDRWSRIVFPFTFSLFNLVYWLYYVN
Sequence of hGABAA α2β3γ2 (P18507 40-475): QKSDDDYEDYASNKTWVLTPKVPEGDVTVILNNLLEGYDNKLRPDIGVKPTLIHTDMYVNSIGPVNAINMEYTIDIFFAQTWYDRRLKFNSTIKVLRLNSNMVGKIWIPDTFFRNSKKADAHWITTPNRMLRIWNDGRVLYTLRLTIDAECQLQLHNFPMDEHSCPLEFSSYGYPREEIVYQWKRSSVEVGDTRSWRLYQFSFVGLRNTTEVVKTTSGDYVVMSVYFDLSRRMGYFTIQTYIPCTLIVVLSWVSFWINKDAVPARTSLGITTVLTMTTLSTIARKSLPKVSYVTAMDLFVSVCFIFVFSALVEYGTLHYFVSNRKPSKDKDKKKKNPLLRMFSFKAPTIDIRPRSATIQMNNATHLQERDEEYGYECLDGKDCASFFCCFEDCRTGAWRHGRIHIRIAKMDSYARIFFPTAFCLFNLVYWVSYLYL
T1 sequence (P14867 28-456): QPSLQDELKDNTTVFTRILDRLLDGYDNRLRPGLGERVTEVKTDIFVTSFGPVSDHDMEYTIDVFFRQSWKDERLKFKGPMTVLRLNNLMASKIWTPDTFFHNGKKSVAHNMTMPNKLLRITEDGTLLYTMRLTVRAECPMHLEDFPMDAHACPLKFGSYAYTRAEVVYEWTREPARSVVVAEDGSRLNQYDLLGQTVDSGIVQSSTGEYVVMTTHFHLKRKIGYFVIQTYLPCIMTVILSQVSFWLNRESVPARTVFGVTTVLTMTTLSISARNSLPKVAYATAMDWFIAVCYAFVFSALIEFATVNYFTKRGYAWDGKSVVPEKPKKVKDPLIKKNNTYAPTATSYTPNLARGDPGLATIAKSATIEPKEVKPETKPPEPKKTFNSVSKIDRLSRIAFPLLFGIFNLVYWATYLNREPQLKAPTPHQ
T1 sequence (P28472 26-473): as the sequence (P28472 26-473) above
T1 sequence (P18507 40-475): as the sequence (P18507 40-475) above

SMILES: CCCN(CCNC)C(=O)Cc1c(-c2ccc(Cl)cc2)nc2ccc(Cl)cn12 [Compound 3]
- EC50 (hGABAA α1β3γ2 [1]; Estimated EC50, positive modulation of EC20 GABA current): 81 nM
- Mean Maximal Effect (% of Control) (hGABAA α1β3γ2 [1]): 331 % of Control
- Mean Maximal Effect (% of Control) (hGABAA α2β3γ2): 240 % of Control
- EC50 (hGABAA α2β3γ2; positive modulation of EC20 GABA current): 1100 nM
- EC50 (hGABAA α1β3γ2 [2]): > 1 mM
- activation of hGABAA α1β3γ2 ion channel currents (hGABAA α1β3γ2 [2]): did not activate
- activation (hGABAA α1β3γ2 [2]; [3]): 3.53%
- activation at 0.3 µM (hGABAA α1β3γ2 [2]; [3]): 1.99%
- activation at 1 µM (hGABAA α1β3γ2 [2]; [3]): 1.9%
- activation at 3 µM (hGABAA α1β3γ2 [2]; [3]): 2.32%
- activation at 10 µM (hGABAA α1β3γ2 [2]; [3]): 6.3%
- activation at 30 µM (hGABAA α1β3γ2 [2]; [3]): 2.98%
- activation at 100 µM (hGABAA α1β3γ2 [2]; [3]): 3.63%
- activation at 300 µM (hGABAA α1β3γ2 [2]; [3]): 8.78%

SMILES: CCCN(CCNC)C(=O)Cc1c(-c2ccc(C)cc2)nc2ccc(C)cn12 [Compound 2]
- Mean Maximal Effect (% of Control) (hGABAA α1β3γ2 [1]): 354 % of Control
- EC50 (hGABAA α1β3γ2 [1]; read-out: Estimated EC50): 446 nM
- Mean Maximal Effect (% of Control) (hGABAA α2β3γ2): 248 % of Control
- EC50 (hGABAA α2β3γ2): 2000 nM
- activation of hGABAA α1β3γ2 ion channel currents (hGABAA α1β3γ2 [2]): did not activate
- EC50 (hGABAA α1β3γ2 [2]; [4]): > 1 mM
- activation (hGABAA α1β3γ2 [2]; [3]): 3.48%
- activation at 0.3 µM (hGABAA α1β3γ2 [2]; [3]): 2.17%
- activation at 1 µM (hGABAA α1β3γ2 [2]; [3]): 1.99%
- activation at 3 µM (hGABAA α1β3γ2 [2]; [3]): 2.79%
- activation at 10 µM (hGABAA α1β3γ2 [2]; [3]): 5.37%
- activation at 30 µM (hGABAA α1β3γ2 [2]; [3]): 5.93%
- activation at 100 µM (hGABAA α1β3γ2 [2]; [3]): 7.1%
- activation at 300 µM (hGABAA α1β3γ2 [2]; [3]): 3.63%

SMILES: CN1C(=O)CN=C(c2ccccc2)c2cc(Cl)ccc21 [Diazepam]
- (%) Control mean (hGABAA α1β3γ2 [1]; 0.003 μM + EC20 GABA): 124.0 % Control and 122.6 % Control and 125.3 % Control
- (%) Control n1 (hGABAA α1β3γ2 [1]; 0.003 μM + EC20 GABA): 123.6 % Control and 125.3 % Control and 121.6 % Control
- (%) Control n2 (hGABAA α1β3γ2 [1]; 0.003 μM + EC20 GABA): 124.3 % Control and 119.9 % Control and 129.0 % Control
- (%) Control mean (hGABAA α1β3γ2 [1]; 0.01 μM + EC20 GABA): 148.4 % Control and 139.6 % Control and 149.7 % Control
- (%) Control n1 (hGABAA α1β3γ2 [1]; 0.01 μM + EC20 GABA): 149.5 % Control and 141.4 % Control and 137.2 % Control
- (%) Control n2 (hGABAA α1β3γ2 [1]; 0.01 μM + EC20 GABA): 147.2 % Control and 137.8 % Control and 162.2 % Control
- (%) Control mean (hGABAA α1β3γ2 [1]; 0.03 μM + EC20 GABA): 186.5 % Control and 171.8 % Control and 193.2 % Control
- (%) Control n1 (hGABAA α1β3γ2 [1]; 0.03 μM + EC20 GABA): 182.7 % Control and 182.4 % Control and 169.0 % Control
- (%) Control n2 (hGABAA α1β3γ2 [1]; 0.03 μM + EC20 GABA): 190.3 % Control and 161.2 % Control and 217.4 % Control
- (%) Control mean (hGABAA α1β3γ2 [1]; 0.1 μM + EC20 GABA): 250.0 % Control and 234.6 % Control and 223.1 % Control
- (%) Control n1 (hGABAA α1β3γ2 [1]; 0.1 μM + EC20 GABA): 230.0 % Control and 227.4 % Control and 232.1 % Control
- (%) Control n2 (hGABAA α1β3γ2 [1]; 0.1 μM + EC20 GABA): 269.9 % Control and 241.8 % Control and 214.1 % Control
- (%) Control mean (hGABAA α1β3γ2 [1]; 0.3 μM + EC20 GABA): 298.9 % Control and 284.3 % Control and 269.3 % Control
- (%) Control n1 (hGABAA α1β3γ2 [1]; 0.3 μM + EC20 GABA): 265.9 % Control and 275.1 % Control and 262.8 % Control
- (%) Control n2 (hGABAA α1β3γ2 [1]; 0.3 μM + EC20 GABA): 331.8 % Control and 293.6 % Control and 275.8 % Control
- (%) Control mean (hGABAA α1β3γ2 [1]; 1 μM + EC20 GABA): 317.0 % Control and 310.4 % Control and 314.3 % Control
- (%) Control n1 (hGABAA α1β3γ2 [1]; 1 μM + EC20 GABA): 284.9 % Control and 296.1 % Control and 284.8 % Control
- (%) Control n2 (hGABAA α1β3γ2 [1]; 1 μM + EC20 GABA): 349.1 % Control and 324.7 % Control and 343.8 % Control
- Mean Maximal Effect (% of Control) (hGABAA α1β3γ2 [1]): 317 % of Control and 310 % of Control and 314 % of Control
- (%) Control mean (hGABAA α2β3γ2; 0.003 μM + EC20 GABA): 116.0 % Control and 114.8 % Control and 100.4 % Control
- (%) Control n1 (hGABAA α2β3γ2; 0.003 μM + EC20 GABA): 113.8 % Control and 112.4 % Control and 113.2 % Control
- (%) Control n2 (hGABAA α2β3γ2; 0.003 μM + EC20 GABA): 118.1 % Control and 117.2 % Control and 87.7 % Control
- (%) Control mean (hGABAA α2β3γ2; 0.01 μM + EC20 GABA): 135.3 % Control and 124.0 % Control and 118.1 % Control
- (%) Control n1 (hGABAA α2β3γ2; 0.01 μM + EC20 GABA): 131.2 % Control and 123.3 % Control and 122.4 % Control
- (%) Control n2 (hGABAA α2β3γ2; 0.01 μM + EC20 GABA): 139.3 % Control and 124.7 % Control and 113.8 % Control
- (%) Control mean (hGABAA α2β3γ2; 0.03 μM + EC20 GABA): 162.5 % Control and 158.2 % Control and 142.3 % Control
- (%) Control n1 (hGABAA α2β3γ2; 0.03 μM + EC20 GABA): 155.2 % Control and 156.2 % Control and 150.5 % Control
- (%) Control n2 (hGABAA α2β3γ2; 0.03 μM + EC20 GABA): 169.9 % Control and 160.3 % Control and 134.2 % Control
- (%) Control mean (hGABAA α2β3γ2; 0.1 μM + EC20 GABA): 252.4 % Control and 255.8 % Control and 206.0 % Control
- (%) Control n1 (hGABAA α2β3γ2; 0.1 μM + EC20 GABA): 261.1 % Control and 261.6 % Control and 216.8 % Control
- (%) Control n2 (hGABAA α2β3γ2; 0.1 μM + EC20 GABA): 243.8 % Control and 249.9 % Control and 195.1 % Control
- (%) Control mean (hGABAA α2β3γ2; 0.3 μM + EC20 GABA): 253.5 % Control and 261.6 % Control and 214.1 % Control
- (%) Control n1 (hGABAA α2β3γ2; 0.3 μM + EC20 GABA): 267.8 % Control and 260.9 % Control and 230.4 % Control
- (%) Control n2 (hGABAA α2β3γ2; 0.3 μM + EC20 GABA): 239.3 % Control and 262.3 % Control and 197.8 % Control
- (%) Control mean (hGABAA α2β3γ2; 1 μM + EC20 GABA): 262.3 % Control and 269.3 % Control and 224.3 % Control
- (%) Control n1 (hGABAA α2β3γ2; 1 μM + EC20 GABA): 274.0 % Control and 285.9 % Control and 235.0 % Control
- (%) Control n2 (hGABAA α2β3γ2; 1 μM + EC20 GABA): 250.6 % Control and 252.8 % Control and 213.6 % Control
- Mean Maximal Effect (% of Control) (hGABAA α2β3γ2): 262 % of Control and 269 % of Control and 224 % of Control

SMILES: CCN(CCNC)C(=O)CC1c2nccnc2C(=O)N1c1ccc(Cl)cn1 (centres unmarked) [Compound 5]
- Mean Maximal Effect (% of Control) (hGABAA α1β3γ2 [1]): 136 % of Control
- EC50 (hGABAA α1β3γ2 [1]; read-out: Estimated EC50): 3160 nM
- Mean Maximal Effect (% of Control) (hGABAA α2β3γ2): 126 % of Control
- EC50 (hGABAA α2β3γ2): 8700 nM
- activation of hGABAA α1β3γ2 ion channel currents (hGABAA α1β3γ2 [2]): did not activate
- EC50 (hGABAA α1β3γ2 [2]; [4]): > 1 mM
- activation at 0.3 µM (hGABAA α1β3γ2 [2]; [3]): 2.54%
- activation at 1 µM (hGABAA α1β3γ2 [2]; [3]): 2.02%
- activation at 3 µM (hGABAA α1β3γ2 [2]; [3]): 2.28%
- activation at 10 µM (hGABAA α1β3γ2 [2]; [3]): 2.45%
- activation at 30 µM (hGABAA α1β3γ2 [2]; [3]): 3.08%
- activation at 100 µM (hGABAA α1β3γ2 [2]; [3]): 3.75%
- activation at 300 µM (hGABAA α1β3γ2 [2]; [3]): 2.7%
- activation at 10000 µM (hGABAA α1β3γ2 [2]; [3]): 2.38%
